Test results taken from publication PMC8325119, “A Novel Class of Functionalized Synthetic Fluoroquinolones with Dual Antiproliferative - Antimicrobial Capacities” (Asian Pacific Journal of Cancer Prevention : APJCP, 2021).
Values after ≈ are worked out from the molar mass of the structure shown. Values joined by “and” are separate entries in the source; they are usually repeats but may differ in a detail not shown here. Identical values can stand only once. Like-named read-outs stand apart in the source and are kept apart here.

Assays:
PANC 1 cell line = assay: SRB cytotoxicity assay, PANC 1 pancreatic cancer cell line
Procedure: (§1) All reagents and chemicals of analytical grade were obtained from Sigma (Dorset, UK); unless stated otherwise. All chemicals, reagents and solvents (of analytical grade) were used directly without further purification. MCF7 cell line ATCC® HTB-22™, T47D cell line ATCC® HTB-133™, K562 cell line ATCC® CCL-243™, Panc1 cell line ATCC® CRL-1469™. A375.S2 cell line ATCC® CRL-1872™, A549 cell line ATCC® CCL-185™, HELA cell line ATCC® CCL-2™ were cultured in Dulbecco’s modified eagle’s medium (DMEM). (DMEM) containing foetal bovine serum (FBS) (Bio Whittaker, Verviers, Belgium), 4-(2-hydroxyethyl)-1-piperazine ethane sulfonic acid (HEPES) Buffer, L-glutamine, gentamicin, penicillin, and streptomycin sulphate (Sigma, St. Luis, MO, USA), trypsin, trypan blue, Ciprofloxacin HCl from Aarti drugs Ltd/India, was a kind gift from Pharma International Company- Amman; Fluconazole from Neopharma, United Arab Emirates, a kind gift from Pharmaceutical Research Unit, Amman; Trypon soya agar (TSA), trypon soya broth (TSB), sabouraud dextrose agar (SDA) were obtained from Liofilchem (Italy) or Oxoid LTD (Basingstoke, England), they were reconstituted and sterilized by autoclave at 121 °C for 15 min.
(§2) The cytotoxicity measurements were determined using Sulforhodamine B (SRB) colorimetric assay for cytotoxicity screening. The mechanism of reduction of cell viability was adopted as described previously (Arabiyat et al., 2016a,b; 2017; Alabsi et al., 2018; Jumah, 2018; AlShahrabi et al., 2020). Human periodontal ligament fibroblasts (PDL) are a primary normal cell culture for verification of selective cytotoxicity. […] Selectivity ratio as indicative factor of the safety of compounds was calculated by dividing IC50 of tested compound on normal fibroblasts by IC50 of the same compound on specific pathological cell line (Hoffman et al., 2011).

K562 cell line = assay: SRB cytotoxicity assay, K562 leukaemia cell line
Procedure: as §1, §2

MCF7 cell line = assay: SRB cytotoxicity assay, MCF7 breast cancer cell line
Procedure: as §1, §2

A375.S2 cell line = assay: SRB cytotoxicity assay, A375.S2 melanoma cell line
Procedure: as §1, §2

HELA cell line = assay: SRB cytotoxicity assay, HELA cervical cancer cell line
Procedure: as §1, §2

A549 cell line = assay: SRB cytotoxicity assay, A549 lung cancer cell line
Procedure: as §1, §2

T47D cell line = assay: cells; conditions: 72 h; for IC50: read-out: Cytotoxicity IC50 value, T47D cell line; for Cytotoxicity IC50 value, T47D cell line: value in brackets
Procedure: as §1, §2

PDL Fibroblasts = assay: SRB cytotoxicity on normal periodontal ligament fibroblasts, selective cytotoxicity; assay type: cell-based, Human; conditions: for IC50 / IC50 value PDL Fibroblasts: normal fibroblasts, SRB, 72 h, mean ± SD; for Selectivity index SI (K562): IC50 on PDL fibroblasts divided by IC50 on K562; for Selectivity index SI (HELA): IC50 on PDL fibroblasts divided by IC50 on HELA
Procedure: as §2

[1] = Homo sapiens, PANC-1, 72 h, read-out: Cytotoxicity IC50 value, PANC 1 cell line
[2] = Homo sapiens, K562, 72 h, read-out: Cytotoxicity IC50 value, K562 cell line, SRB, 72 h, 0.1-200 μg/mL range, mean ± SD, value in brackets
[3] = Homo sapiens, K562, 72 h, read-out: Cytotoxicity IC50 value, K562 cell line, SRB, 72 h, 0.1-200 μg/mL range, mean ± SD, NI = lack of cytotoxicity in range
[4] = Homo sapiens, MCF7, 72 h, read-out: Cytotoxicity IC50 value, MCF7 cell line
[5] = Homo sapiens, A375-S2, 72 h, read-out: Cytotoxicity IC50 value, A375.S2 cell line
[6] = Homo sapiens, HeLa, 72 h, read-out: Cytotoxicity IC50 value, HELA cell line, SRB, 72 h, 0.1-200 μg/mL range, mean ± SD, value in brackets
[7] = Homo sapiens, HeLa, 72 h, read-out: Cytotoxicity IC50 value, HELA cell line, SRB, 72 h, 0.1-200 μg/mL range, mean ± SD, NI = lack of cytotoxicity in range
[8] = Homo sapiens, A549, 72 h, read-out: Cytotoxicity IC50 value, A549 cell line
[9] = Homo sapiens, Fibroblast, 0.1-200 μg/mL range, NI = lack of cytotoxicity in range
[10] = Homo sapiens, Fibroblast, value in brackets
[11] = 0.1-200 μg/mL range, NI = lack of cytotoxicity in range
[12] = SRB, 0.1-200 μg/mL range, mean ± SD
[13] = SRB, 0.1-200 μg/mL range, mean ± SD, NI = lack of cytotoxicity in range

| SMILES | IC50 (PANC 1 cell line; [1]) | IC50 (K562 cell line; [2]) [µg/mL] | IC50 (K562 cell line; [3]) | IC50 (MCF7 cell line; [4]) | IC50 (A375.S2 cell line; [5]) | IC50 (HELA cell line; [6]) [µg/mL] | IC50 (HELA cell line; [7]) | IC50 (A549 cell line; [8]) | IC50 (T47D cell line; Homo sapiens, T47D) | IC50 (PDL Fibroblasts; [9]) | IC50 (PDL Fibroblasts; [10]) [µg/mL] | other results |
| --- | --- | --- | --- | --- | --- | --- | --- | --- | --- | --- | --- | --- |
| CCOC(=O)c1cn(C2CC2)c2c([N+](=O)[O-])c(Cl)c(F)cc2c1=O [1E] | 79.3 µM and 25.9 µg/mL | 32.4 | 99.1 ± 7.5 µM | 220 µM and 71.9 µg/mL | 271 µM and 121 µg/mL | 43.3 | 133 ± 4.78 µM | 447 µM and 200 µg/mL | 108 µM and 35.4 µg/mL |  |  |  |
| COc1ccccc1Nc1c(F)cc2c(=O)c(C(=O)O)cn(C3CC3)c2c1[N+](=O)[O-] [3a, 1-cyclopropyl-6-fluoro-7-(2-methoxy-phenylamino)-8-nitro-4-oxo-1,4-dihydro-quinoline-3-carboxylic acid] |  |  |  |  |  |  |  |  | > 200 µg/mL | 184 ± 3.69 µM | 76 | Selectivity index SI (MCF7) (PDL Fibroblasts; IC50 on PDL fibroblasts divided by IC50 on MCF7): 2.71 |
| COc1cccc(Nc2c(F)cc3c(=O)c(C(=O)O)cn(C4CC4)c3c2[N+](=O)[O-])c1 [3b, 1-cyclopropyl-6-fluoro-7-(3-methoxy-phenylamino)-8-nitro-4-oxo-1,4-dihydro-quinoline-3-carboxylic acid] | > 200 µg/mL |  | > 200 µg/mL | > 200 µg/mL | > 200 µg/mL |  | > 200 µg/mL | > 200 µg/mL | > 200 µg/mL | > 200 µg/mL |  |  |
| COc1ccc(Nc2c(F)cc3c(=O)c(C(=O)O)cn(C4CC4)c3c2[N+](=O)[O-])cc1 [3c, 1-cyclopropyl-6-fluoro-7-(4-methoxy-phenylamino)-8-nitro-4-oxo-1,4-dihydro-quinoline-3-carboxylic acid] | 40.7 µM and 16.8 µg/mL | 32.7 | 79.1 ± 8.69 µM | 54.2 µM and 22.4 µg/mL | 274 µM and 113 µg/mL | 81.7 | 198 ± 11.1 µM | 64.4 µM and 26.6 µg/mL | 66 µM and 27.3 µg/mL | 107 ± 5.61 µM | 44.3 | Cytotoxicity IC50 value, K562 cell line (K562 cell line; SRB, 72 h, 0.1-200 μg/mL range, mean ± SD, value in brackets): 16.83 ± 0.15 µg/mL; Selectivity index SI (PANC 1) (PDL Fibroblasts; IC50 on PDL fibroblasts divided by IC50 on PANC 1): 2.63 |
| CCc1ccc(Nc2c(F)cc3c(=O)c(C(=O)O)cn(C4CC4)c3c2[N+](=O)[O-])cc1 [3d, 1-cyclopropyl-6-fluoro-7-(4-ethyl-phenylamino)-8-nitro-4-oxo-1,4-dihydro-quinoline-3-carboxylic acid] | > 200 µg/mL |  | > 200 µg/mL | > 200 µg/mL | 372 µM and 153 µg/mL |  | > 200 µg/mL | > 200 µg/mL | > 200 µg/mL | 728 ± 119 µM | 300 | Selectivity index SI (A375.S2) (PDL Fibroblasts; IC50 on PDL fibroblasts divided by IC50 on A375.S2): 1.95 |
| CCCCc1ccc(Nc2c(F)cc3c(=O)c(C(=O)O)cn(C4CC4)c3c2[N+](=O)[O-])cc1 [3e, 1-cyclopropyl-6-fluoro-7-(4-butyl-phenylamino)-8-nitro-4-oxo-1,4-dihydro-quinoline-3-carboxylic acid] | 12.2 µM and 5.38 µg/mL | 0.71 | 1.62 ± 0.16 µM | 428 µM and 188 µg/mL | 144 µM and 63.5 µg/mL | 498 | 1130 ± 65.6 µM | 64.2 µM and 28.2 µg/mL | 406 µM and 178 µg/mL | 711 ± 44.9 µM | 313 | Selectivity index SI (K562) (PDL Fibroblasts): 439.01 |
| CCCCCCc1ccc(Nc2c(F)cc3c(=O)c(C(=O)O)cn(C4CC4)c3c2[N+](=O)[O-])cc1 [3f, 1-cyclopropyl-6-fluoro-7-(4-hexyl-phenylamino)-8-nitro-4-oxo-1,4-dihydro-quinoline-3-carboxylic acid] | 1.67 mM and 779 µg/mL | 30 | 64.1 ± 4.78 µM | 135 µM and 63.3 µg/mL | 63.1 µM and 29.5 µg/mL | 3.48 | 7.44 ± 0.78 µM | 63.9 µM and 29.9 µg/mL | 141 µM and 66 µg/mL | 119 ± 19.7 µM | 55.7 | Selectivity index SI (HELA) (PDL Fibroblasts): 16.01 |
| COc1ccc(Nc2c(F)cc3c(=O)c(C(=O)O)cn(C4CC4)c3c2[N+](=O)[O-])c(OC)c1 [3g, 1-cyclopropyl-7-(2,4-dimethoxy-phenylamino)-6-fluoro-8-nitro-4-oxo-1,4-dihydro-quinoline-3-carboxylic acid] | > 200 µg/mL |  | > 200 µg/mL | > 200 µg/mL | > 200 µg/mL |  | > 200 µg/mL | > 200 µg/mL | > 200 µg/mL | > 200 µg/mL |  |  |
| CCn1cc(C(=O)O)c(=O)c2cc(F)c(Nc3ccc(OC)cc3OC)c(N)c21 [12c, 8-amino-7-(2,4-dimethoxy-phenylamino)-1-ethyl-6-fluoro-4-oxo-1,4-dihydro-quinoline-3-carboxylic acid] | 93.5 µM and 37.5 µg/mL | 10.6 | 26.4 ± 4.54 µM | 101 µM and 40.4 µg/mL | 67.3 µM and 27 µg/mL | 15.6 | 38.8 ± 1.91 µM | 40.9 µM and 16.4 µg/mL |  | 43.8 ± 6.21 µM | 17.6 | Selectivity index SI (K562) (PDL Fibroblasts): 1.65 |
| CCn1cc(C(=O)O)c(=O)c2cc(F)c3c(nnn3-c3ccccc3OC)c21 [13a, 9-ethyl-4-fluoro-3-(2-methoxy-phenyl)-6-oxo-6,9-dihydro-3H-[1,2, and 3] triazolo [4,5-h] quinoline-7-carboxylic acid] |  |  |  |  |  |  |  |  |  |  |  | Cytotoxicity IC50 value, PANC 1 cell line (PANC 1 cell line): 118.30 ± 6.71 µg/mL; IC50 (PANC 1 cell line): 310 ± 17.6 µM; Cytotoxicity IC50 value, K562 cell line (K562 cell line): 2.66 ± 0.49 µg/mL; IC50 (K562 cell line): 6.98 ± 1.28 µM; Selectivity index SI (K562) (PDL Fibroblasts): 40.01; IC50 (PDL Fibroblasts; [11]): 276 ± 20.7 µM; IC50 value PDL Fibroblasts (PDL Fibroblasts; value in brackets): 105.13 ± 7.90 µg/mL (≈ 275 µM); Cytotoxicity IC50 value, A375.S2 cell line (A375.S2 cell line): 203.87 ± 4.80 µg/mL; IC50 (A375.S2 cell line): 535 ± 12.6 µM; Cytotoxicity IC50 value, HELA cell line (HELA cell line): 20.06 ± 2.62 µg/mL; IC50 (HELA cell line): 52.6 ± 6.86 µM; Cytotoxicity IC50 value, A549 cell line (A549 cell line): 94.32 ± 1.44 µg/mL; IC50 (A549 cell line): 247 ± 3.78 µM; Cytotoxicity IC50 value, T47D cell line (T47D cell line; [12]): 21.93 ± 0.87 µg/mL; IC50 (T47D cell line; [13]): 57.5 ± 2.27 µM |
| CCn1cc(C(=O)O)c(=O)c2cc(F)c3c(nnn3-c3cccc(OC)c3)c21 [13b, 9-ethyl-4-fluoro-3-(3-methoxy-phenyl)-6-oxo-6,9-dihydro-3H-[1,2, and 3] triazolo [4,5-h] quinoline-7-carboxylic acid] |  |  |  |  |  |  |  |  |  |  |  | Cytotoxicity IC50 value, K562 cell line (K562 cell line): 22.13 ± 0.85 µg/mL; IC50 (K562 cell line): 58 ± 2.22 µM; Cytotoxicity IC50 value, MCF7 cell line (MCF7 cell line): 159.18 ± 8.68 µg/mL; IC50 (MCF7 cell line): 417 ± 22.8 µM; Selectivity index SI (HELA) (PDL Fibroblasts): 7.19; IC50 (PDL Fibroblasts; [11]): 332 ± 14.6 µM; IC50 value PDL Fibroblasts (PDL Fibroblasts; value in brackets): 126.55 ± 5.58 µg/mL (≈ 331 µM); Cytotoxicity IC50 value, A375.S2 cell line (A375.S2 cell line): 38.96 ± 3.39 µg/mL; IC50 (A375.S2 cell line): 102 ± 8.88 µM; Cytotoxicity IC50 value, HELA cell line (HELA cell line): 15.99 ± 1.35 µg/mL; IC50 (HELA cell line): 41.9 ± 3.55 µM; Cytotoxicity IC50 value, A549 cell line (A549 cell line): 95.87 ± 9.20 µg/mL; IC50 (A549 cell line): 251 ± 24.1 µM; Cytotoxicity IC50 value, T47D cell line (T47D cell line; [12]): 44.68 ± 3.49 µg/mL; IC50 (T47D cell line; [13]): 117 ± 9.15 µM |
| N.N.[Cl][Pt][Cl] [Cisplatin, cisplatin, reference compound] |  |  |  |  |  |  |  |  |  |  |  | IC50 (PDL Fibroblasts; [11]): 0.71 ± 0.13 µM; IC50 value PDL Fibroblasts (PDL Fibroblasts; value in brackets): 0.21 ± 0.04 µg/mL |
